What all share (format): cell-based, human
Data set [1] relates to MCF7 cells. The experiment in a line: MTT activity assay, aptamers transfected with Lipofectamine 2000. As to the method: (§1) FIG. 3. Effect of the aptamers on MTT activity of MCF7 and MDA-MB-231 cells. The cells were seeded in 96-well plates at a density of 10^4 cells/well. After 16-24 hours, they were transfected with aptamers apMNKQ1, apMNKQ2, apMNKQ3, and apMNKQ4 at 250 nM for 48 hours after which MTT activity assays were performed. The bars represent the mean±SEM of 3-6 independent experiments (*p<0.05, **p<0.01, and ***p<0.001 with respect to the control aptamer AT).
(§2) FIGS. 8A-8C. Effect of aptamer apMNKQ2 on MTT activity of breast cell lines. MCF7, MDA-MB-231, and MDA-MB-468 cells were seeded in 96-well plates at a density of 10^4 cells/well. […] The graphs represent the means±SEM of 3 independent experiments (*p<0.05, **p<0.01, and ***p<0.001 with respect to the control AT).
(§3) The Lipofectamine™ 2000 system (Invitrogen, USA) was used to treat cells with the different aptamers. To prepare the DNA-lipofectamine complex, lipofectamine and DNA were separately diluted in opti-MEM (Gibco, USA) and left to incubate at room temperature for 5 minutes. They were then mixed to form lipofectamine-DNA complexes and incubated for 20 minutes at room temperature. Finally, the mixture was added to the cells that had been washed twice with antibiotic-free medium to prevent the interference thereof with lipofectamine. The cells were incubated at 37° C. for 5 hours, after which the reagent was removed and a complete medium was added.
(§4) MTT activity. The cells were seeded in 96-well plates and after having been transfected, the culture medium was removed and 100 μL/well of MTT at 1 mg/ml in culture medium were added. The plates were incubated for 90 minutes in an incubator with a moisture-saturated environment at 37° C. and 5% CO2/[…] and 100 μL/well of a lysis solution (10% SDS and 10 mM HCl) were added for dissolving the crystals. After 48 hours, the reduction of MTT was determined by means of spectrophotometry in Infinite F200 (TECAN, Switzerland) at 540 nm.
(§5) The results were expressed as the percentage of viability with respect to the control or in absorbance units.
For orientation: Tetrazolium dyes change colour on reduction, which living cells bring about.

Data set [2] relates to MDA-MB-231 cells. The data set is described as above. As to the method: as §1, §2, §3, §4, §5
Data set [3] has as its system MCF7 cells. As to the kind of experiment: Transwell migration assay. The note with it: MCF7, 150 nM, 24 hours migration. The procedure:
(§6) FIGS. 13A, 13B and 13C. Effect of aptamer apMNKQ2 on the migration and invasion of breast cell lines. The three lines of study were seeded in 6-well plates at a density of 2.5×10^5 cells/well and transfected at 24 hours with apMNKQ2 at the established working concentrations. The cell lines were deprived of serum after 6 hours and collected and re-seeded (4×10^4 cells/well) after 24 hours in a transwell […], in order to perform migration and invasion assays, respectively. At 24 hours, the membranes of the transwell are stained with Hoechst and cells that have gone through the membranes are quantified using fluorescence microscopy (FIG. 13A). The boxes (FIGS. 13B and 13C) represent the mean±the maximum and minimum of 4-5 independent experiments (*p<0.05, **p<0.01, and ***p<0.001 with respect to the control aptamer AT).
(§7) Cell migration and invasion assays were performed using transwell (Corning, USA). The cells, previously transfected and incubated for 16 hours, were deprived of serum for 18 hours. After that time, they were collected, counted, and reseeded 4×10^4 cells in 300 μl of a serum-free complete medium inside the transwell (migration) or a transwell on which a layer of 100 μL of Matrigel (Corning, USA) (invasion) had previously been polymerized. […] Finally, two washes in PBS were performed, and 5 photographs of each membrane of the transwell were taken using a fluorescence microscope (Olympus IX70). The number of cells was analyzed using the imageJ program.
(§8) To analyze the effect of the aptamer on cell migration, experiments were carried out using transwells instead of the wound healing technique. […] At 18 hours, 40,000 cells are collected, counted, and seeded in small “baskets” in a serum-free medium, and these baskets are immersed in the well of the plate with complete serum, such that the serum acts as a chemoattractant and the cells migrate from the basket to the well, going through the membrane of the transwell. […]

Data set [4] concerns MDA-MB-231 cells. The experiment in a line: Transwell migration assay. The note with it: MDA-MB-231, 400 nM, 24 hours migration. The procedure: as §6, §7, §8
For data set [5], the system named is MDA-MB-468 cells. The experiment in a line: Transwell migration assay. The note with it: MDA-MB-468, 50 nM, 24 hours migration. The procedure:
as §6, §7, §8

As usually defined, the GI50 is the concentration at which growth is held to half of that of the control. A lower GI50 goes with greater sensitivity of the cells. With “5′TGGGGTGGGCGGGCGGGGGTGGGGGTGGT-3′ (DNA, backbone and methylation of C not given here; further chemistry not fully specified) [apMNKQ2]”, the concentration for 50% growth inhibition (GI50) in data set [1] (MCF7, MTT activity at 48 hours, 0 to 500 nM) came to 42 nM; in data set [2] (MDA-MB-231, MTT activity at 48 hours, 0 to 500 nM), 144 nM. Besides, the “cell proliferation (MTT activity) reduced to” value amounted to 51% in data set [1] (MCF7, aptamer 250 nM, 48 hours after transfection) and 36% in data set [2] (MDA-MB-231, aptamer 250 nM, 48 hours after transfection). The “inhibition of migration (transwell)” value in data set [3] is listed as “in a statistically significant manner”; in data set [4], “in a statistically significant manner”; in data set [5], “capable of inhibiting migration”.

The values above are taken from patent publication US12492403B2, “Aptamers and the use thereof in the treatment of cancer” (FUNDACIÓN PARA LA INVESTIGACIÓN BIOMÉDICA DEL HOSPITAL …, priority 2018, dated 2025).
